Read-outs that look alike come from different tables or passages of the source.
Assays:
[1] = molecular target: T1, HDAC7 (Homo sapiens, UniProt Q8WUI4); experiment: HDAC biochemical activity measurement (fluorescent substrate deacetylation);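 further: fluorogenic deacetylation assay using acetyl-lysine substrate at 20 µM, enzyme and compound incubated 30 min at 37 °C, then developer added, fluorescence read at 360/460 nm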; settings: HDAC7; 37° C. 30 minutes
T1 sequence (Q8WUI4 1-952): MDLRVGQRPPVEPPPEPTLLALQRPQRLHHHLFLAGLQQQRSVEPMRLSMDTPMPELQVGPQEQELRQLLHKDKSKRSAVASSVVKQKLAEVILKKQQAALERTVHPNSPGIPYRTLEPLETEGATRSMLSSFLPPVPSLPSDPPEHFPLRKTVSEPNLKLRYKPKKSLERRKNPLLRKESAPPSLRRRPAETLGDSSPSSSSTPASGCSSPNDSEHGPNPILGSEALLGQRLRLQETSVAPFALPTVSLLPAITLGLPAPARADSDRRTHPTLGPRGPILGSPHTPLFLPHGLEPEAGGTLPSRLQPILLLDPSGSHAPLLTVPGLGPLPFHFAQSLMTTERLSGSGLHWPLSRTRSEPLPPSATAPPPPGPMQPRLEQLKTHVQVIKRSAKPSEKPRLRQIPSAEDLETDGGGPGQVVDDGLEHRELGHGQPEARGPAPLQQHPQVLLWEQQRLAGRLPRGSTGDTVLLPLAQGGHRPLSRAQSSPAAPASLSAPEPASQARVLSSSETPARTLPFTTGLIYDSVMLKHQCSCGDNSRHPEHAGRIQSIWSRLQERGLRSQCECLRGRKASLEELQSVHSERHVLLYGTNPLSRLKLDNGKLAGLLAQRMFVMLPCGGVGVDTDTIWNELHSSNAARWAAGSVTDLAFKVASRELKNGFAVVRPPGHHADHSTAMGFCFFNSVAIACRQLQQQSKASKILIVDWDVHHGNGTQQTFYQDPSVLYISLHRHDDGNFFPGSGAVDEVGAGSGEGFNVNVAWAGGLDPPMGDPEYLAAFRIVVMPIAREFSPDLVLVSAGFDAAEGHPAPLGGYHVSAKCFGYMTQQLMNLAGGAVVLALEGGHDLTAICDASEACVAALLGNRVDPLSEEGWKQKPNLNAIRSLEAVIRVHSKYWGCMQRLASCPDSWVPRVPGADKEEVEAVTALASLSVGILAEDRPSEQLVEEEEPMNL

[2] = tested on: DU145 (human prostate cancer cells); experiment: MTT cancer cell growth inhibition; format: cell-based; settings: Homo sapiens, DU-145, 72 h, MTT, 72 hours incubation, read-out: GI50 Du1
Description: (§1) MTT assay principle is yellow MTT can penetrate membrane into the cell, succinic dehydrogenase of the mitochondria in living cells can make exogenous MTT reduction of insoluble in water of blue-violet acicular formazan for crystallization and deposition in the cell, crystallization can be dissolved dimethyl sulfoxide (DMSO) solution, detected its absorbance at 490 nm/570 nm wavelength by enzyme-linked immunosorbent assay, which can reflect the number of cells.
(§2) Using DMEM+10% FBS culture medium or using 1640+10% FBS culture, respectively.
(§3) a) Cells were seeded in 96-well plates with the inoculation of 1500/well, 190 μl/hole, 37° C., 5% of CO2 incubator overnight;
(§4) b) The next day each well was added 10 μl of different drugs. The final concentration of drug was 10^−5˜10^−10M, three parallel holes; 37° C., 5% CO2 culture incubator for 72 hours incubation;
(§5) c) Per well was added 20 μl 5 mg/ml of MTT, 37° C., 5% CO2 culture incubator for 4 hours incubation;
(§6) d) The supernatant was discarded. Each well was added 100 μl of DMSO and oscillation;
(§7) e) 570 nm readings. Calculate cell viability. GI50 calculation based on the results.

[3] = tested on: MOLT-4 (human acute lymphoblastic leukemia cells); experiment: MTT cancer cell growth inhibition; format: cell-based; settings: Homo sapiens, MOLT-4, 72 h, MTT, 72 hours incubation, read-out: GI50 Mol
Description: as §1, §2, §3, §4, §5, §6, §7

[4] = tested on: PANC-1 (Pac-1, human pancreatic cancer cells); experiment: MTT cancer cell growth inhibition; format: cell-based; settings: Homo sapiens, PANC-1, 72 h, MTT, 72 hours incubation, read-out: GI50 PAN
Description: as §1, §2, §3, §4, §5, §6, §7

[5] = tested on: KBM5-T315I (human chronic myelogenous leukemia); experiment: MTT cancer cell growth inhibition; format: cell-based; settings: Homo sapiens, 72 h, MTT, 72 hours incubation, KBM5-T315I cells; read-out: GI50 KBM5-T315I
Description: as §1, §2, §3, §4, §5, §6, §7

[6] = tested on: Huh-7 (human hepatoma cells); experiment: MTT cancer cell growth inhibition; format: cell-based; settings: Homo sapiens, Huh-7, 72 h, MTT, 72 hours incubation, Huh-7 cells; read-out: GI50 Huh-7
Description: as §1, §2, §3, §4, §5, §6, §7

[7] = tested on: A549 (human lung cancer cells); experiment: MTT cancer cell growth inhibition; format: cell-based; settings: Homo sapiens, A549, 72 h, MTT, 72 hours incubation, read-out: GI50 A54
Description: as §1, §2, §3, §4, §5, §6, §7

[8] = tested on: Hela (human cervical cancer cells); experiment: MTT cancer cell growth inhibition; format: cell-based; settings: Homo sapiens, HeLa, 72 h, MTT, 72 hours incubation, read-out: GI50 Hela
Description: as §1, §2, §3, §4, §5, §6, §7

[9] = tested on: U937 (human leukemia cells); experiment: MTT cancer cell growth inhibition; format: cell-based; settings: Homo sapiens, U-937, 72 h, MTT, 72 hours incubation, read-out: GI50 U93
Description: as §1, §2, §3, §4, §5, §6, §7

[10] = tested on: BGC-823 (human gastric cancer cells); experiment: MTT cancer cell growth inhibition; format: cell-based; settings: Homo sapiens, BGC-823, 72 h, MTT, 72 hours incubation, read-out: GI50 BG
Description: as §1, §2, §3, §4, §5, §6, §7

[11] = tested on: MCF-7 (human breast cancer cells); experiment: MTT cancer cell growth inhibition; format: cell-based; settings: Homo sapiens, MCF7, 72 h, 72 hours incubation, read-out: GI50 MCF
Description: as §1, §2, §3, §4, §5, §6, §7

[12] = tested on: HT1080 (human fibrosarcoma cells); experiment: MTT cancer cell growth inhibition; format: cell-based; settings: Homo sapiens, HT-1080, 72 h, MTT, 72 hours incubation, read-out: GI50 HT1
Description: as §1, §2, §3, §4, §5, §6, §7

[13] = tested on: MDA-MB-231 (breast cancer cells); experiment: MTT cancer cell growth inhibition; format: cell-based; settings: Homo sapiens, MDA-MB-231, 72 h, read-out: GI50 MDA-MB-231, MTT, 72 hours incubation, MDA-MB-231 cells
Description: as §1, §2, §3, §4, §5, §6, §7

[14] = tested on: Bel-7402 (human hepatoma cells); experiment: MTT cancer cell growth inhibition; format: cell-based; settings: Homo sapiens, Bel-7402, 72 h, MTT, 72 hours incubation, Bel-7402 cells; read-out: GI50 Bel-7402
Description: as §1, §2, §3, §4, §5, §6, §7

[15] = tested on: H1975 (non-small cell lung adenocarcinoma); experiment: MTT cancer cell growth inhibition; format: cell-based; settings: Homo sapiens, NCI-H1975, 72 h, MTT, 72 hours incubation, H1975 cells; read-out: GI50 H1975
Description: as §1, §2, §3, §4, §5, §6, §7

[16] = tested on: N-87 (human gastric cancer cells); experiment: MTT cancer cell growth inhibition; format: cell-based; settings: Homo sapiens, 72 h, MTT, 72 hours incubation, N-87 cells; read-out: GI50 N-87
Description: as §1, §2, §3, §4, §5, §6, §7

[17] = tested on: HCC827 (human non-small cell lung cancer cells); experiment: MTT cancer cell growth inhibition; format: cell-based; settings: Homo sapiens, HCC827, 72 h, MTT, 72 hours incubation, HCC827 cells; read-out: GI50 HCC827
Description: as §1, §2, §3, §4, §5, §6, §7

[18] = tested on: KBM-5 (human chronic myelogenous leukemia); experiment: MTT cancer cell growth inhibition; format: cell-based; settings: Homo sapiens, KBM5, 72 h, MTT, 72 hours incubation, KBM-5 cells; read-out: GI50 KBM-5
Description: as §1, §2, §3, §4, §5, §6, §7

[19] = tested on: K562 (human leukemia cells); experiment: MTT cancer cell growth inhibition; format: cell-based; settings: Homo sapiens, K562, 72 h, MTT, 72 hours incubation, K562 cells; read-out: GI50 K562
Description: as §1, §2, §3, §4, §5, §6, §7

[20] = tested on: SGC-7901 (human gastric cancer cells); experiment: MTT cancer cell growth inhibition; format: cell-based; settings: Homo sapiens, SGC-7901, 72 h, MTT, 72 hours incubation, SGC-7901 cells; read-out: GI50 SGC-7901
Description: as §1, §2, §3, §4, §5, §6, §7

[21] = tested on: lncap (prostate cancer cells); experiment: MTT cancer cell growth inhibition; format: cell-based; settings: Homo sapiens, LNCaP, 72 h, MTT, 72 hours incubation, read-out: GI50 lnca
Description: as §1, §2, §3, §4, §5, §6, §7

SMILES: C/C=C1\NC(=O)c2ccc(F)c(n2)CNC(=O)C[C@@H](/C=C/CCS)OC(=O)[C@H](Cc2cccc3ccccc23)NC1=O [Compound 126]
- IC50 HDAC7 [1]: no activity
- GI50 [2]: 60 nM
- GI50 [3]: 90 nM
- GI50 [4]: 30 nM
- GI50 [5]: 37 nM
- GI50 [6]: 51 nM
- GI50 [7]: 30 nM
- GI50 [8]: 130 nM
- GI50 [9]: 70 nM
- GI50 [10]: 100 nM
- GI50 [11]: 20 nM
- GI50 [12]: 50 nM
- GI50 [13]: 29 nM
- GI50 [14]: 49 nM
- GI50 [15]: 33 nM
- GI50 [16]: 33 nM
- GI50 [17]: 38 nM
- GI50 [18]: 41 nM
- GI50 [19]: 79 nM
- GI50 [20]: 81 nM
- GI50 [21]: 20 nM

SMILES: C/C=C1\NC(=O)c2nc(ccc2SC)CNC(=O)C[C@@H](/C=C/CCSC(C)=O)OC(=O)[C@H](CCCCNC(=O)OCC2c3ccccc3-c3ccccc32)NC1=O [Compound 195]
- IC50 HDAC7 [1]: no activity
- GI50 ([2]; DU145 cells): 50 nM
- GI50 ([3]; MOLT-4 cells): 20 nM
- GI50 ([4]; PANC-1 cells): 30 nM
- GI50 [5]: 43 nM
- GI50 [6]: 45 nM
- GI50 ([7]; A549 cells): 90 nM
- GI50 ([8]; Hela cells): 60 nM
- GI50 ([9]; U937 cells): 50 nM
- GI50 ([10]; BGC-823 cells): 20 nM
- GI50 ([11]; MCF-7 cells): 30 nM
- GI50 ([12]; HT1080 cells): 30 nM
- GI50 [13]: 91 nM
- GI50 [14]: 54 nM
- GI50 [15]: 38 nM
- GI50 [16]: 42 nM
- GI50 [17]: 79 nM
- GI50 [18]: 26 nM
- GI50 [19]: 81 nM
- GI50 [20]: 14 nM
- GI50 ([21]; lncap cells): 90 nM

SMILES: C/C=C1\NC(=O)c2nc(ccc2F)CNC(=O)C[C@@H](/C=C/CCS)OC(=O)[C@H](Cc2ccccc2)NC1=O [Compound 115]
- IC50 HDAC7 [1]: no activity
- GI50 [2]: 70 nM
- GI50 [3]: 80 nM
- GI50 [4]: 60 nM
- GI50 [5]: 28 nM
- GI50 [6]: 99 nM
- GI50 [7]: 40 nM
- GI50 [8]: 80 nM
- GI50 [9]: 40 nM
- GI50 [10]: 60 nM
- GI50 [11]: 70 nM
- GI50 [12]: 80 nM
- GI50 [13]: 36 nM
- GI50 [14]: 36 nM
- GI50 [15]: 23 nM
- GI50 [16]: 45 nM
- GI50 [17]: 41 nM
- GI50 [18]: 53 nM
- GI50 [19]: 41 nM
- GI50 [20]: 23 nM
- GI50 [21]: 80 nM

SMILES: C=C1NC(=O)c2ccc(SC)c(n2)CNC(=O)C[C@@H](/C=C/CCSC(C)=O)OC(=O)[C@H](C)NC1=O [Compound 212]
- IC50 HDAC7 [1]: no activity
- GI50 ([2]; DU145 cells): 30 nM
- GI50 ([3]; MOLT-4 cells): 70 nM
- GI50 ([4]; PANC-1 cells): 50 nM
- GI50 [5]: 37 nM
- GI50 [6]: 57 nM
- GI50 ([7]; A549 cells): 40 nM
- GI50 ([8]; Hela cells): 20 nM
- GI50 ([9]; U937 cells): 60 nM
- GI50 ([10]; BGC-823 cells): 60 nM
- GI50 ([11]; MCF-7 cells): 70 nM
- GI50 ([12]; HT1080 cells): 30 nM
- GI50 [13]: 97 nM
- GI50 [14]: 39 nM
- GI50 [15]: 62 nM
- GI50 [16]: 35 nM
- GI50 [17]: 48 nM
- GI50 [18]: 69 nM
- GI50 [19]: 35 nM
- GI50 [20]: 84 nM
- GI50 ([21]; lncap cells): 80 nM

From patent publication US10065990B2, “Cyclic peptide compound, and preparation method, pharmaceutical composition and use thereof” (HANGZHOU GUANYU BIO-MEDICAL CO., LTD, priority 2013, dated 2018)
